Assay [1] concerns RKO p27 or p21 uninduced (proliferating) colon adenocarcinoma cells. The assay can be described thus: Alamar Blue cell viability assay, RKO p27 or p21 uninduced (proliferating). The assay is classed as cell-based. The conditions noted are these: Homo sapiens, RKOp27, 72 h, Table B2, anti-proliferative/cytotoxic activity, read-out: −log EC50 RKO p27 or p21 uninduced (proliferating) (converted). The procedure: The anti-proliferative/cytotoxic activity of the compounds described herein can be tested on subclones of RKO human colon adenocarcinoma cells (Schmidt et al., Oncogene 19, 2423-2429; 2000) using the Alamar Blue cell viability assay (described in O'Brien et al. Eur J Biochem 267, 5421-5426, 2000). The compounds are dissolved as 10 mM solutions in DMSO and subsequently diluted in semi-logarithmic steps. DMSO dilutions are further diluted 1:100 into Dulbecco's modified Eagle's medium (DMEM) containing 10% fetal calf serum to a final concentration twice as much as the final concentration in the test. RKO subclones are seeded into 96 well flat bottom plates at a density of 4000 cells per well in a volume of 50 μl per well. 24 hours after seeding the 50 μl each of the compound dilutions in DMEM medium are added into each well of the 96 well plate. Each compound dilution is tested as triplicates. Wells containing untreated control cells are filled with 50 μl DMEM medium containing 1% DMSO. The cells are then incubated with the substances for 72 hours at 37° C. in a humidified atmosphere containing 5% carbon dioxide. To determine the viability of the cells, 10 μl of an Alamar Blue solution (Biosource) are added and the fluorescence is measured at an extinction of 544 nm and an emission of 590 nm. For the calculation of the cell viability the emission value from untreated cells is set as 100% viability and the emission rates of treated cells are set in relation to the values of untreated cells. Viabilities are expressed as % values. The Graphpad Prism program is used for the calculation of EC50 values for anti-proliferative/cytotoxic activity out of the obtained dose-response curves.
(§1) To determine the cell cycle specific mode of action, subclones of RKO colon adenocarcinoma cells (RKOp21 or RKOp27 as described by Schmidt et al. in Oncogene 19, 2423-2429; 2000) are seeded into 96 well flat bottom plates at a density of 16000 cells per well in a volume of 50 μl per well in DMEM growth medium with 10% FCS containing 10 μM Ponasterone A. 24 hours after seeding the 50 μl each of the compound dilutions in DMEM medium are added into each well of the 96-well plate. Each compound dilution is tested as triplicates. Wells containing untreated control cells are filled with 50 μl DMEM medium containing 1% DMSO. The cells are then incubated with the substances for 72 hours at 37° C. in a humidified atmosphere containing 5% carbon dioxide. To determine the viability of the cells, 10 μl of an Alamar Blue solution (Biosource) are added and the fluorescence is measured at an extinction of 544 nm and an emission of 590 nm. For the calculation of the cell viability the emission value from untreated cells is set as 100% viability and the emission rates of treated cells are set in relation to the values of untreated cells. Viabilities are expressed as % values. The Graphpad Prism program (GraphPad Software, Inc) is used for the calculation of EC50 values out of the obtained dose-response curves. Viability is compared of proliferating cells grown in the absence of the inducer Ponasterone A, versus viability of cells arrested by the expression of ectopic p27Kip1 induced by Ponasterone A.
(§2) Representative values for anti-proliferation/cytotoxicity [measured as −log EC50 (mol/l)] determined in the aforementioned assays follow from the following tables B1, B2 and B3, in which the numbers of the compounds correspond to the numbers of the examples.
Background: Resazurin is reduced to fluorescent resorufin, in cell work by metabolically active cells.

For assay [2], the system named is RKO p27 or p21 induced (arrested) colon adenocarcinoma cells. Kind of assay: Alamar Blue cell viability assay, RKO p27 or p21 induced (arrested). It counts as cell-based. Conditions: Homo sapiens, RKOp27, Table B2, cells arrested by Ponasterone A, 72 hours, read-out: −log EC50 RKO p27 or p21 induced (arrested) (converted). The procedure:
as §1, §2

These results are taken from US8530493B2, “Indolopyridines as Eg5 kinesin modulators” (4SC AG, priority 2006, dated 2013).

One may read the EC50 as the concentration giving half of the maximal effect. Take `C[C@@]12Cc3c([nH]c4ccc(Cl)cc34)[C@@H](c3cccc(O)c3)N1C(=O)N(CCNC1CCC1)C2=O` (racemic) [Example 103, (3aSR,10RS)-6-Chloro-2-(2-cyclobutylamino-ethyl)-10-(3-hydroxy-phenyl)-3a-methyl-3a,4,9,10-tetrahydro-2,9,10a-triaza-cyclopenta[b]fluorene-1,3-dione]: the EC50 is ≤ 39.8 nM in assay [1] and ≥ 3160 nM in assay [2].

With `C[C@@]12Cc3c([nH]c4ccc(Cl)cc34)[C@@H](c3cccc(O)c3)N1C(=O)N(CCN1CC=CC1)C2=O` (racemic) [Example 109, (3aSR,10RS)-6-Chloro-2-[2-(2,5-dihydro-pyrrol-1-yl)-ethyl]-10-(3-hydroxy-phenyl)-3a-methyl-3a,4,9,10-tetrahydro-2,9,10a-triaza-cyclopenta[b]fluorene-1,3-dione], the EC50 in assay [1] is ≤ 39.8 nM; in assay [2] it was ≥ 316 nM.

As for `COc1ccc2[nH]c3c(c2c1)C[C@@]1(C)C(=O)N(CCCNC2CC2)C(=O)N1[C@@H]3c1cccc(O)c1` (racemic) [Example 93, (3aSR,10RS)-2-(3-Cyclopropylamino-propyl)-10-(3-hydroxy-phenyl)-6-methoxy-3a-methyl-3a,4,9,10-tetrahydro-2,9,10a-triaza-cyclopenta[b]fluorene-1,3-dione], the EC50 in assay [1] was ≤ 39.8 nM; in assay [2], ≥ 3160 nM.

For `C#CCN(C)CCN1C(=O)N2[C@H](c3cccc(O)c3)c3[nH]c4ccc(Cl)cc4c3C[C@@]2(C)C1=O` (racemic) [Example 116, (3aSR,10RS)-6-Chloro-10-(3-hydroxy-phenyl)-3a-methyl-2-[2-(methyl-prop-2-ynyl-amino)-ethyl]-3a,4,9,10-tetrahydro-2,9,10a-triaza-cyclopenta[b]fluorene-1,3-dione], the EC50 in assay [1] is 39.8 to 251 nM; in assay [2] it was ≥ 316 nM.

As to `COc1ccc2[nH]c3c(c2c1)C[C@@]1(C)C(=O)N(CCN(C)CCO)C(=O)N1[C@@H]3c1cccc(O)c1` (racemic) [Example 118, (3aSR,10RS)-2-{2-[(2-Hydroxy-ethyl)-methyl-amino]-ethyl}-10-(3-hydroxy-phenyl)-6-methoxy-3a-methyl-3a,4,9,10-tetrahydro-2,9,10a-triaza-cyclopenta[b]fluorene-1,3-dione], the EC50 in assay [1] was ≤ 39.8 nM; in assay [2], ≥ 316 nM.

On to `COc1ccc2[nH]c3c(c2c1)C[C@@]1(C)C(=O)N(CCCNC2CCC2)C(=O)N1[C@@H]3c1cccc(O)c1` (racemic) [Example 86, (3aSR,10RS)-2-(3-Cyclobutylamino-propyl)-10-(3-hydroxy-phenyl)-6-methoxy-3a-methyl-3a,4,9,10-tetrahydro-2,9,10a-triaza-cyclopenta[b]fluorene-1,3-dione], for which the results for the EC50 in assay [1] and in assay [2] were ≤ 39.8 nM and ≥ 3160 nM, respectively.

In the case of `C#CCN(C)CCN1C(=O)N2[C@H](c3cccc(O)c3)c3[nH]c4ccc(OC)cc4c3C[C@@]2(C)C1=O` (racemic) [Example 81, (3aSR,10RS)-10-(3-Hydroxy-phenyl)-6-methoxy-3a-methyl-2-[2-(methyl-prop-2-ynyl-amino)-ethyl]-3a,4,9,10-tetrahydro-2,9,10a-triaza-cyclopenta[b]fluorene-1,3-dione], the EC50 in assay [1] is ≤ 39.8 nM; in assay [2], ≥ 3160 nM.

In the case of `Cn1ccc(NCCN2C(=O)N3[C@H](c4cccc(O)c4)c4[nH]c5ccc(Cl)cc5c4C[C@@]3(C)C2=O)n1` (racemic) [Example 125, (3aSR,10RS)-6-Chloro-10-(3-hydroyx-phenyl)-3a-methyl-2-[2-(1-methyl-1H-pyrazol-3-ylamino)-ethyl]-3a,4,9,10-tetrahydro-2,9,10a-triaza-cyclopenta[b]fluorene-1,3-dione], the EC50 in assay [1] is 39.8 to 251 nM; in assay [2], ≥ 316 nM.

`COc1ccc2[nH]c3c(c2c1)C[C@@]1(C)C(=O)N(CCN2CCC(C)CC2)C(=O)N1[C@@H]3c1cccc(O)c1` (racemic) [Example 75, (3aSR,10RS)-10-(3-Hydroxy-phenyl)-6-methoxy-3a-methyl-2-[2-(4-methyl-piperidin-1-yl)-ethyl]-3a,4,9,10-tetrahydro-2,9,10a-triaza-cyclopenta[b]fluorene-1,3-dione]: the EC50 in assay [1] was 39.8 to 251 nM; in assay [2] it was ≥ 3160 nM.

`C=CCNCCN1C(=O)N2[C@H](c3cccc(O)c3)c3[nH]c4ccc(Cl)cc4c3C[C@@]2(C)C1=O` (racemic) [Example 115, (3aSR,10RS)-2-(2-Allylamino-ethyl)-6-chloro-10-(3-hydroxy-phenyl)-3a-methyl-3a,4,9,10-tetrahydro-2,9,10a-triaza-cyclopenta[b]fluorene-1,3-dione]: the figures for the EC50 in assay [1] and in assay [2] were ≤ 39.8 nM and ≥ 316 nM, respectively.

For `CCN(CC)CCCN1C(=O)N2[C@H](c3cccc(O)c3)c3[nH]c4ccc(OC)cc4c3C[C@@]2(C)C1=O` (racemic) [Example 107, (3aSR,10RS)-2-(3-Diethylamino-propyl)-10-(3-hydroxy-phenyl)-6-methoxy-3a-methyl-3a,4,9,10-tetrahydro-2,9,10a-triaza-cyclopenta[b]fluorene-1,3-dione], the EC50 in assay [1] is ≤ 39.8 nM; in assay [2], ≥ 316 nM.

Consider `C=CCNCCN1C(=O)N2[C@H](c3cccc(O)c3)c3[nH]c4ccc(OC)cc4c3C[C@@]2(C)C1=O` (racemic) [Example 84, (3aSR,10RS)-2-(2-Allylamino-ethyl)-10-(3-hydroxy-phenyl)-6-methoxy-3a-methyl-3a,4,9,10-tetrahydro-2,9,10a-triaza-cyclopenta[b]fluorene-1,3-dione], for which the half-maximal effective concentration (EC50) in assay [1] is ≤ 39.8 nM; in assay [2], ≥ 3160 nM.

For the compound `CCN(CC)CCN1C(=O)N2[C@H](c3cccc(O)c3)c3[nH]c4ccc(Cl)cc4c3C[C@@]2(C)C1=O` (racemic) [Example 110, (3aSR,10RS)-6-Chloro-2-(2-diethylamino-ethyl)-10-(3-hydroxy-phenyl)-3a-methyl-3a,4,9,10-tetrahydro-2,9,10a-triaza-cyclopenta[b]fluorene-1,3-dione], the values for the EC50 in assay [1] and in assay [2] were ≤ 39.8 nM and ≥ 316 nM, respectively.

With `CNCCCN1C(=O)N2[C@H](c3cccc(O)c3)c3[nH]c4ccc(OC)cc4c3C[C@@]2(C)C1=O` (racemic) [Example 76, (3aSR,10RS)-10-(3-Hydroxy-phenyl)-6-methoxy-3a-methyl-2-(3-methylamino-propyl)-3a,4,9,10-tetrahydro-2,9,10a-triaza-cyclopenta[b]fluorene-1,3-dione], the EC50 in assay [1] was ≤ 39.8 nM; in assay [2], ≥ 3160 nM.

Turning to `COc1ccc2[nH]c3c(c2c1)C[C@@]1(C)C(=O)N(CCCN2CC=CCC2)C(=O)N1[C@@H]3c1cccc(O)c1` (racemic) [Example 106, (3aSR,10RS)-2-[3-(3,6-Dihydro-2H-pyridin-1-yl)-propyl]-10-(3-hydroxy-phenyl)-6-methoxy-3a-methyl-3a,4,9,10-tetrahydro-2,9,10a-triaza-cyclopenta[b]fluorene-1,3-dione], the values for the EC50 in assay [1] and in assay [2] were ≤ 39.8 nM and ≥ 316 nM, respectively.

Take `CCN(CCO)CCN1C(=O)N2[C@H](c3cccc(O)c3)c3[nH]c4ccc(OC)cc4c3C[C@@]2(C)C1=O` (racemic) [Example 78, (3aSR,10RS)-2-[2-[Ethyl-(2-hydroxy-ethyl)-amino]-ethyl}-10-(3-hydroxy-phenyl)-6-methoxy-3a-methyl-3a,4,9,10-tetrahydro-2,9,10a-triaza-cyclopenta[b]fluorene-1,3-dione]: the results for the EC50 in assay [1] and in assay [2] were ≤ 39.8 nM and ≥ 3160 nM, respectively.

Take `COc1ccc2[nH]c3c(c2c1)C[C@@]1(C)C(=O)N(CCNCC(F)F)C(=O)N1[C@@H]3c1cccc(O)c1` (racemic) [Example 73, (3aSR,10RS)-2-[2-(2,2-Difluoro-ethylamino)-ethyl]-10-(3-hydroxy-phenyl)-6-methoxy-3a-methyl-3a,4,9,10-tetrahydro-2,9,10a-triaza-cyclopenta[b]fluorene-1,3-dione]: the results for the EC50 in assay [1] and in assay [2] were 39.8 to 251 nM and ≥ 3160 nM, respectively.
